Values quoted from earlier work as cited in patent publication US6159964A, “Vitronectin receptor antagonists” (SmithKline Beecham Corporation, priority 1999, dated 2000).

System: fibrinogen receptor
Conditions: template of WO 93/08174

## N=C(N)c1ccc(NC(=O)c2ccc3c(c2)CN(CCc2ccccc2)C(=O)C(CC(=O)O)N3)cc1 (racemic) [(R,S)-7-[[[4-(aminoiminomethyl)phenyl]amino]carbonyl]-4-(2-phenylethyl)-1,3,4,5-tetrahydro-3-oxo-2H-1,4-benzodiazepine-2-acetic acid]
  fibrinogen antagonist activity (in words): potent and selective fibrinogen antagonist
